Read-outs that look alike come from different tables or passages of the source.
Test system: HCV
Test: Cell-based HCV infection NS3 protease FRET assay in DMSO-Huh7 cells; also: test concentration or dose not given here
Design: species or system hepatitis C virus (HCV)
[1] = DMSO-Huh7 cells infected with HCV at 0.05 ffu/cell, HCV NS3 protein levels by FRET, day 6 p.i.

Structure (SMILES)	Ave % inhibition [1]	Ave % inhibition
CCCCCCCCCN1C[C@@H]2OC(C)(C)O[C@@H]2[C@@H]1CNC(C)=O [Compound 630, N-(((3aR,4S,6aS)-2,2-dimethyl-5-nonyltetrahydro-3aH-[1,3]dioxolo[4,5-c]pyrrol-4-yl)methyl)acetamide]	++ (++: 20-39%)	–
CC1(C)O[C@H]2[C@H](CN(Cc3ccc(-c4ccccc4)cc3)[C@H]2CNC(=O)C(F)(F)F)O1 [Compound 632, N-(((3aR,4S,6aS)-5-(biphenyl-4-ylmethyl)-2,2-dimethyltetrahydro-3aH-[1,3]dioxolo[4,5-c]pyrrol-4-yl)methyl)-2,2,2-trifluoroacetamide]	++ (++: 20-39%)	–
O=C(NC[C@H]1[C@@H](O)[C@@H](O)CN1CCN1CCOCC1)c1ccccc1 [Compound 633, N-(((2S,3R,4S)-3,4-dihydroxy-1-(2-morpholinoethyl)pyrrolidin-2-yl)methyl)benzamide]	+++ (+++: 40-59%)	–
O=C(NC[C@@H]1[C@@H](O)[C@@H](O)CN1Cc1ccc(-c2ccccc2)cc1)c1ccccc1 [Compound 649, N-(((2R,3R,4S)-1-(biphenyl-4-ylmethyl)-3,4-dihydroxypyrrolidin-2-yl)methyl)benzamide]	+++ (+++: 40-59%)	–
CC1(C)O[C@H]2[C@H](CN(Cc3ccccc3)[C@H]2CNC(=O)c2ccc(-c3ccccc3)cc2)O1 [Compound 652, N-(((3aR,4S,6aS)-5-benzyl-2,2-dimethyltetrahydro-3aH-[1,3]dioxolo[4,5-c]pyrrol-4-yl)methyl)biphenyl-4-carboxamide]	+++++ (+++++: ≧80%)	–
O=C(NC[C@H]1[C@@H](O)[C@@H](O)CN1CCCCCCCCCO)c1ccc(-c2ccccc2)cc1 [Compound 660, N-(((2S,3R,4S)-3,4-dihydroxy-1-(9-hydroxynonyl)pyrrolidin-2-yl)methyl)biphenyl-4-carboxamide]	+++ (+++: 40-59%)	–
CN(C)CCN1C[C@H](O)[C@H](O)[C@@H]1CNC(=O)c1ccccc1 [Compound 667, N-(((2S,3R,4S)-1-(2-(dimethylamino)ethyl)-3,4-dihydroxypyrrolidin-2-yl)methyl)benzamide]	++ (++: 20-39%)	–
CCCC(=O)NC[C@@H]1[C@@H](O)[C@@H](O)CN1Cc1ccccc1 [Compound 669, N-(((2R,3R,4S)-1-benzyl-3,4-dihydroxypyrrolidin-2-yl)methyl)butyramide]	++ (++: 20-39%)	–
O=C(NC[C@@H]1NC[C@H](O)[C@@H]1O)c1ccc(-c2ccccc2)cc1 [Compound 670, N-(((2S,3R,4S)-3,4-dihydroxypyrrolidin-2-yl)methyl)biphenyl-4-carboxamide]	+++++ (+++++: ≧80%)	–
CC1(C)O[C@H]2[C@@H](CN=[N+]=[N-])NC[C@H]2O1 [Compound 671, (3aS,4R,6aR)-4-(azidomethyl)-2,2-dimethyltetrahydro-3aH-[1,3]dioxolo[4,5-c]pyrrole]	–	++ (++: 20-39%)
O=C(NC[C@@H]1[C@@H](O)[C@@H](O)CN1Cc1ccccc1)c1ccc(-c2ccccc2)cc1 [Compound 673, N-(((2R,3R,4S)-1-benzyl-3,4-dihydroxypyrrolidin-2-yl)methyl)biphenyl-4-carboxamide]	++ (++: 20-39%)	–
O=C(NC[C@@H]1NC[C@H](O)[C@@H]1O)C(F)(F)F [Compound 674, N-(((2S,3R,4S)-3,4-dihydroxypyrrolidin-2-yl)methyl)-2,2,2-trifluoroacetamide]	++ (++: 20-39%)	–
CC1(C)O[C@H]2[C@H](CN(CCN3CCOCC3)[C@H]2CNC(=O)C(F)(F)F)O1 [Compound 675, N-(((3aR,4S,6aS)-2,2-dimethyl-5-(2-morpholinoethyl)tetrahydro-3aH-[1,3]dioxolo[4,5-c]pyrrol-4-yl)methyl)-2,2,2-trifluoroacetamid]	++ (++: 20-39%)	–
CCCCN1C[C@@H]2OC(C)(C)O[C@@H]2[C@@H]1CNC(=O)C(F)(F)F [Compound 676, N-(((3aR,4S,6aS)-5-butyl-2,2-dimethyltetrahydro-3aH-[1,3]dioxolo[4,5-c]pyrrol-4-yl)methyl)-2,2,2-trifluoroacetamide]	++ (++: 20-39%)	–
CC1(C)O[C@H]2[C@H](CN(CCN3CCCCC3)[C@H]2CNC(=O)C(F)(F)F)O1 [Compound 677, N-(((3aR,4S,6aS)-2,2-dimethyl-5-(2-(piperidin-1-yl)ethyl)tetrahydro-3aH-[1,3]dioxolo[4,5-c]pyrrol-4-yl)methyl)-2,2,2-trifluoroacetamide]	++ (++: 20-39%)	–
CN(C)CCN1C[C@@H]2OC(C)(C)O[C@@H]2[C@@H]1CNC(=O)C(F)(F)F [Compound 678, N-(((3aR,4S,6aS)-5-(2-(dimethylamino)ethyl)-2,2-dimethyltetrahydro-3aH-[1,3]dioxolo[4,5-c]pyrrol-4-yl)methyl)-2,2,2-trifluoroacetamide]	++ (++: 20-39%)	–
NC[C@H]1[C@@H](O)[C@@H](O)CN1Cc1ccc(-c2ccccc2)cc1 [Compound 686, (2S,3R,4S)-2-(aminomethyl)-1-(biphenyl-4-ylmethyl)pyrrolidine-3,4-diol]	+++ (+++: 40-59%)	–
COCCOCCN1C[C@H](O)[C@H](O)[C@@H]1CNC(=O)c1ccc(-c2ccccc2)cc1 [Compound 688, N-(((2S,3R,4S)-3,4-dihydroxy-1-(2-(2-methoxyethoxy)ethyl)pyrrolidin-2-yl)methyl)biphenyl-4-carboxamide]	+++ (+++: 40-59%)	–
CCCCN1C[C@H](O)[C@H](O)[C@H]1CNC(=O)CCC [Compound 689, N-(((2R,3R,4S)-1-butyl-3,4-dihydroxypyrrolidin-2-yl)methyl)butyramide]	+ (+: ≦19%)	–

Structure (SMILES)	Ave % inhibition [1]	Ave % inhibition
O[C@H]([C@H]1[C@@H](O)[C@H](O)CN1Cc1ccccc1)[C@H](O)CNCc1ccccc1 [Compound 698, (2S,3R,4R)-1-benzyl-2-((1R,2R)-3-(benzylamino)-1,2-dihydroxypropyl)pyrrolidine-3,4-diol]	++ (++: 20-39%)	–
O[C@@H]1[C@H]([C@@H](O)CNCc2ccccc2)N(Cc2ccccc2)C[C@@H]1O [Compound 700, (2S,3R,4S)-1-benzyl-2-((S)-2-(benzylamino)-1-hydroxyethyl)pyrrolidine-3,4-diol]	++ (++: 20-39%)	–
O=C(NC[C@H]1[C@@H](O)[C@@H](O)CN1CCN1CCOCC1)c1ccc(-c2ccccc2)cc1 [Compound 702, N-(((2S,3R,4S)-3,4-dihydroxy-1-(2-morpholinoethyl)pyrrolidin-2-yl)methyl)biphenyl-4-carboxamide]	++++ (++++: 60-79%)	–
OC[C@@H](O)[C@H](O)[C@H]1[C@@H](O)[C@H](O)CN1Cc1ccccc1 [Compound 703, (1R,2R)-1-((2R,3R,4R)-1-benzyl-3,4-dihydroxypyrrolidin-2-yl)propane-1,2,3-triol]	++ (++: 20-39%)	–
CC1(C)O[C@H]([C@H]2[C@@H](O)[C@H](O)CN2Cc2ccccc2)[C@@H](CNCc2ccccc2)O1 [Compound 704, (2R,3R,4R)-1-benzyl-2-((4R,5R)-5-((benzylamino)methyl)-2,2-dimethyl-1,3-dioxolan-4-yl)pyrrolidine-3,4-diol]	++++ (++++: 60-79%)	–
COC(=O)[C@H]1C[C@H](O)CN1C(=O)OC(C)(C)C [Compound 713, (2R,4S)-1-tert-butyl 2-methyl 4-hydroxypyrrolidine-1,2-dicarboxylate]	++ (++: 20-39%)	–
[N-]=[N+]=N[C@@H]1C[C@H](CO)N(CCCO)C1 [Compound 717, ′3-((2R,4R)-4-azido-2-(hydroxymethyl)pyrrolidin-1-yl)propan-1-ol]	+++++ (+++++: ≧80%)	–
[N-]=[N+]=N[C@@H]1CN(CCO)[C@H](CO)[C@H]1O [Compound 721, (2R,3R,4R)-4-azido-1-(2-hydroxyethyl)-2-(hydroxymethyl)pyrrolidin-3-ol]	++ (++: 20-39%)	–
CCCCCCCCCN1C[C@@H](O)[C@@H](O)[C@H](NC(C)=O)C1 [Compound 731, N-((3R,4S,5R)-4,5-dihydroxy-1-nonylpiperidin-3-yl)acetamide]	++ (++: 20-39%)	–
CCCCCCCCCN1C[C@@H](O)[C@H](O)[C@H](O)[C@@H](O)C1 [Compound 736, (3R,4S,5R,6S)-1-nonylazepane-3,4,5,6-tetraol]	+++ (+++: 40-59%)	–
OC1CN(Cc2ccc(-c3ccccc3)cc2)C1 [Compound 748, 1-(biphenyl-4-ylmethyl)azetidin-3-ol]	++++ (++++: 60-79%)	–
CCN1C[C@H](O)[C@@H](O)[C@H](O)[C@H]1CO [Compound 756, (2R,3R,4R,5S)-1-ethyl-2-(hydroxymethyl)piperidine-3,4,5-triol]	–	+ (+: ≦19%)
O[C@H]1[C@H](O)[C@H](O)CN(Cc2ccc(-c3ccccc3)cc2)C[C@H]1O [Compound 762, (3R,4R,5R,6R)-1-(biphenyl-4-ylmethyl)azepane-3,4,5,6-tetraol]	+++ (+++: 40-59%)	–
[N-]=[N+]=N[C@@H]1CN[C@@H](CO)C1 [Compound 767, ((2R,4S)-4-azidopyrrolidin-2-yl)methanol]	++++ (++++: 60-79%)	–
CCCCCCCCCN1C[C@H](O)[C@@H](O)[C@H](NC(C)=O)C1 [Compound 774, N-((3R,4S,5S)-4,5-dihydroxy-1-nonylpiperidin-3-yl)acetamide]	+ (+: ≦19%)	–
CCCCCCCCCN1C[C@H](O)C(NC(C)=O)[C@@H](O)C1 [Compound 777, N-((3S,5S)-3,5-dihydroxy-1-nonylpiperidin-4-yl)acetamide]	+++ (+++: 40-59%)	–
CCCCCCCCCN1C[C@@H](O)[C@H](O)[C@@H](NC(C)=O)C1 [Compound 780, N-((3S,4R,5R)-4,5-dihydroxy-1-nonylpiperidin-3-yl)acetamide]	++ (++: 20-39%)	–
CCCCCCCCCN1C[C@@H](O)C(NC(C)=O)[C@H](O)C1 [Compound 783, N-((3R,5R)-3,5-dihydroxy-1-nonylpiperidin-4-yl)acetamide]	+++ (+++: 40-59%)	–
CCCCCCCCCN1C[C@@H](O)[C@H](NC(C)=O)[C@@H](O)C1 [Compound 789, N-((3S,4r,5R)-3,5-dihydroxy-1-nonylpiperidin-4-yl)acetamide]	+++ (+++: 40-59%)	–

Reference: US20110195929A1, “COMPOUNDS FOR THE TREATMENT OF FLAVIVIRAL INFECTIONS” (SUMMIT CORPORATION PLC, priority 2008, published 2011)
